By GI50 is commonly meant the concentration that inhibits growth by half. One may read the IC50 as the concentration at which inhibition is half-maximal.

Data on 22 compounds can be found in ChEMBL document CHEMBL6109100, “Discovery of novel benzoxazole analogues as potential anticancer agent selectively targeting aromatase” (Bioorg Med Chem, 2025).

One series relates to MCF7. Description: Cytotoxicity against human MCF7 cells assessed as reduction in cell viability measured after 48 hrs by SRB assay. In kind it is functional. In general terms: In SRB staining, fixed cells bind dye roughly in proportion to their protein.
The subject of series [1] is MDA-MB-231. The series is described as follows: Cytotoxicity against human MDA-MB-231 cells assessed as reduction in cell viability measured after 48 hrs by SRB assay. Type of series: functional.
The next series concerns BT-549. The series is described as follows: Cytotoxicity against human BT-549 cells assessed as reduction in cell viability measured after 48 hrs by SRB assay. Type of series: functional.
The next series deals with T47D. The series is described as follows: Cytotoxicity against human T47D cells assessed as reduction in cell viability measured after 48 hrs by SRB assay. In kind it is functional.
The next series relates to MDA-MB-468. The series is described as follows: Cytotoxicity against human MDA-MB-468 cells assessed as reduction in cell viability measured after 48 hrs by SRB assay. Type of series: functional.
Series [2] in a line: Cytotoxicity against African green monkey Vero cells assessed as reduction in cell viability measured after 48 hrs by SRB assay. Type of series: toxicity, cell-based. To be noted: chlorocebus sabaeus.
Series [3] deals with T1, Aromatase (Homo sapiens, UniProt P11511).
T1 sequence (P11511 whole entry): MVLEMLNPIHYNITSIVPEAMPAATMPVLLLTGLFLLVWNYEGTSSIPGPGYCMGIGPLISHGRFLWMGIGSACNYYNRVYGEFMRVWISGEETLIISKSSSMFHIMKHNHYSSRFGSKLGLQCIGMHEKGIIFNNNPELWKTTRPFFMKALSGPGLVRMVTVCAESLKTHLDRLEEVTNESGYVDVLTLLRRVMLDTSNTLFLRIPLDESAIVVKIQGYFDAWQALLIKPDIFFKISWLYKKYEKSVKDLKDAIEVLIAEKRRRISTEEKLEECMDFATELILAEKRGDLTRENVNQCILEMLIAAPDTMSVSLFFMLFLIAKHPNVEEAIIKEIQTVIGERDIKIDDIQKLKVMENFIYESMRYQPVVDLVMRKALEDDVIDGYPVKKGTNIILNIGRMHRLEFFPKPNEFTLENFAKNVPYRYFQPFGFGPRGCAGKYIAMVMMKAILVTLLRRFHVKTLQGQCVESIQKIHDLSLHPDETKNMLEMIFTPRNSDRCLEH
Description: Inhibition of aromatase in human MCF7 cells using androstenedione as substrate measured after 2 hrs. Type of series: cell-based.

Series [4] addresses Poly [ADP-ribose] polymerase 2 (Homo sapiens, UniProt Q9UGN5). The series is described as follows: Inhibition of PARP-2 (unknown origin).
The next series addresses Histone deacetylase. The series is described as follows: Inhibition of HDAC (unknown origin). In kind it is protein assay, Homo sapiens.
A further series deals with Carbonic anhydrase 2 (Homo sapiens, UniProt P00918). The series is described as follows: Inhibition of CA2 (unknown origin) using p-nitrophenyl acetate as substrate preincubated for 10 mins followed by substrate addition and measured after 30 mins by spectrophotometry.
The next series deals with RPMI-8226. Description: Cytotoxicity against human RPMI-8226 cells assessed as reduction in cell viability measured after 48 hrs by SRB assay. Type of series: functional, cell-based. The conditions noted are these: RPMI-8226, 48 h.
In series [5] the test system is MDA-MB-231. The series is described as follows: Cytotoxicity against human MDA-MB-231 cells assessed as reduction in cell viability measured after 48 hrs by MTT assay. In kind it is functional, cell-based. To be noted: MDA-MB-231, 48 h. On the technique in general: Formazan colour is commonly taken as a measure of viable cells.
The target in series [6] is T2, Aromatase (Rattus norvegicus, UniProt P22443).
T2 sequence (P22443 whole entry): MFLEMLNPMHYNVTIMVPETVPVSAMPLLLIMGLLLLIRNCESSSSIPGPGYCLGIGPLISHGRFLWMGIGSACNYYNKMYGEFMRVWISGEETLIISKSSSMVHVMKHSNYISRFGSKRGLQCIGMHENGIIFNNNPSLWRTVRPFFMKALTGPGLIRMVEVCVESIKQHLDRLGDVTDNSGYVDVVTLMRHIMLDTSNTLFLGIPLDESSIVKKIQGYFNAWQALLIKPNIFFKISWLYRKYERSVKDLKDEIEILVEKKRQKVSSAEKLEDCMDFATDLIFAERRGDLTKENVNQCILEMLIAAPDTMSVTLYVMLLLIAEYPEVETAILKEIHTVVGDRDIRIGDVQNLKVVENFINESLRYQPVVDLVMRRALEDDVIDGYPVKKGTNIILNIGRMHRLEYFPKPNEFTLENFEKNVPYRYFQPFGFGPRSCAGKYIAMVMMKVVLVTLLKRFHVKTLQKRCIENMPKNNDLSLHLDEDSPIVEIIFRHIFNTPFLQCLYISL
The series is described as follows: Inhibition of rat aromatase measured after 2 hrs by ELISA. (In general: ELISA stands for enzyme-linked immunosorbent assay.)

SMILES strings stand for the structures.

Poly [ADP-ribose] polymerase 2, sequence (Q9UGN5 whole entry): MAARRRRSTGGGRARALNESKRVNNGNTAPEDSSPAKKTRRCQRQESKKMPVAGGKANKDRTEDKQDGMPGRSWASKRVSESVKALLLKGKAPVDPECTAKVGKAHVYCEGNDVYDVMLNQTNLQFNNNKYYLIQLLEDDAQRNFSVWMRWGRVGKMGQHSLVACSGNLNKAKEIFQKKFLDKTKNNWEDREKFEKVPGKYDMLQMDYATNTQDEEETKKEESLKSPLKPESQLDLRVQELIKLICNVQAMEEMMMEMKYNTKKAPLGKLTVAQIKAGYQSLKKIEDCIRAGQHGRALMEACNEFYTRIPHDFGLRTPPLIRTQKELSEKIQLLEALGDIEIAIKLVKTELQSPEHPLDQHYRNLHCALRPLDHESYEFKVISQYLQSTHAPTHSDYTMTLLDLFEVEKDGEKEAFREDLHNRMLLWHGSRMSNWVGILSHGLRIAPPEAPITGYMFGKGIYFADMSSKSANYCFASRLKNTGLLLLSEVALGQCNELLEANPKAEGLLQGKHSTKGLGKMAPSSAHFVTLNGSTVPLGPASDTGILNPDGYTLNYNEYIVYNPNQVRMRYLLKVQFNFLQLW

`CS(=O)(=O)N1CCN(Cc2nc3cc(F)ccc3o2)CC1`: the GI50 with MCF7 worked out at 29.8 µM.

With `O=S(=O)(c1ccccc1)N1CCN(Cc2nc3cc(F)ccc3o2)CC1`, in the series on MCF7, the GI50 turned out to be 8.56 µM. On the same count and under the same terms, the result for `O=S(=O)(c1ccc(F)cc1)N1CCN(Cc2nc3cc(F)ccc3o2)CC1` reads 6.52 µM; that for `O=[N+]([O-])c1cccc(S(=O)(=O)N2CCN(Cc3nc4cc(F)ccc4o3)CC2)c1`, 3.25 µM; that for `O=[N+]([O-])c1ccccc1S(=O)(=O)N1CCN(Cc2nc3cc(F)ccc3o2)CC1`, 5.95 µM. In the case of `O=S(=O)(c1cccc2ccccc12)N1CCN(Cc2nc3cc(F)ccc3o2)CC1`, the GI50 in the series on MCF7 stood at 12.5 µM.

For the compound `CN(C)S(=O)(=O)N1CCN(Cc2nc3cc(F)ccc3o2)CC1`, the GI50 with MCF7 turned out to be 18.3 µM. Same read-out and setting: then `CCS(=O)(=O)N1CCN(Cc2nc3cc(F)ccc3o2)CC1`, with 14.4 µM; and `O=[N+]([O-])c1ccc(S(=O)(=O)N2CCN(Cc3nc4cc(F)ccc4o3)CC2)cc1`, with 1.02 µM. On the same count and under the same terms, then `O=Cc1ccc(S(=O)(=O)N2CCN(Cc3nc4cc(F)ccc4o3)CC2)cc1`, with 2.45 µM. `COc1ccccc1S(=O)(=O)N1CCN(Cc2nc3cc(F)ccc3o2)CC1`: in the series on MCF7, the GI50 is 4.63 µM. Same read-out and setting: then `O=S(=O)(N1CCCCC1)N1CCN(Cc2nc3cc(F)ccc3o2)CC1`, with 9.33 µM; and `O=S(=O)(N1CCOCC1)N1CCN(Cc2nc3cc(F)ccc3o2)CC1`, with 10.3 µM. With `CC(C)(C)c1ccc(S(=O)(=O)N2CCN(Cc3nc4cc(F)ccc4o3)CC2)cc1`, the GI50 with MCF7 worked out at 0.22 µM; in the series on MDA-MB-231 [1] it was 0.49 µM; in the series on BT-549, 1.73 µM; in the series with T47D, 2.55 µM; with MDA-MB-468, 0.87 µM. In addition, the GI50 at 48 h in series [2] stood at 67.1 µM. Also, the IC50 against Aromatase [3] was determined as 0.0649 µM; in series [4], 0.739 µM; at Histone deacetylase it was 1.125 µM; on Carbonic anhydrase 2, 4.1 µM. On to `CC(C)S(=O)(=O)N1CCN(Cc2nc3cc(F)ccc3o2)CC1`, for which the GI50 with MCF7 came out at 21.6 µM.

On to `Cc1ccc(S(=O)(=O)N2CCN(Cc3nc4cc(F)ccc4o3)CC2)cc1`, for which the GI50 in the series on MCF7 is 1.73 µM. On the same count and under the same terms, then `CN1CCN(S(=O)(=O)N2CCN(Cc3nc4cc(F)ccc4o3)CC2)CC1`, with 7.37 µM. As for `O=S(=O)(C1CC1)N1CCN(Cc2nc3cc(F)ccc3o2)CC1`, the GI50 in the series on MCF7 worked out at 25.1 µM. Take `Cc1nc(Nc2nc3ccccc3o2)nc(-c2cccc([N+](=O)[O-])c2)c1C(=O)Nc1ccc(F)cc1Cl`: in the series with RPMI-8226, the IC50 came out at 0.72 µM. Consider `CC(C)(C#N)c1cc(Cn2cncn2)cc(C(C)(C)C#N)c1` [ANASTROZOLE], for which the IC50 in the series on MDA-MB-231 [5] turned out to be 1.21 µM; at Aromatase [6], 3.93 µM. For `COc1cccc2c1C(=O)c1c(O)c3c(c(O)c1C2=O)C[C@@](O)(C(=O)CO)C[C@@H]3O[C@H]1C[C@H](N)[C@H](O)[C@H](C)O1` [DOXORUBICIN], the GI50 amounted to 0.89 µM in the series on MCF7; 0.14 µM with MDA-MB-231 [1]; 2.01 µM in the series on BT-549; 3.78 µM with T47D; 0.53 µM with MDA-MB-468. In addition, the GI50 at 48 h in series [2] was determined as 143 µM.

For `N#Cc1ccc(C(c2ccc(C#N)cc2)n2cncn2)cc1` [LETROZOLE], the IC50 with MDA-MB-231 [5] was 1.27 µM; at Aromatase [6], 0.29 µM.
